Measurements: PubChem BioAssay (NCI)
Values joined by “and” are separate entries in the source; they are usually repeats but may differ in a detail not shown here. Identical values can stand only once.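 Results reflect a 48-hour exposure of cells in 96-well plates to compound at five concentrations. At the GI50, growth is halved. At the TGI there is no net growth.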

Legend:
Assay in all cases: NCI tumour cell line growth inhibition, 48 h
K-562 leukemia = test system: K-562 leukemia
786-0 renal = test system: 786-0 renal
HOP-92 NSCLC = test system: HOP-92 NSCLC
OVCAR-3 ovarian = test system: OVCAR-3 ovarian
CCRF-CEM leukemia = test system: CCRF-CEM leukemia
NCI-H226 lung = test system: NCI-H226 lung
HCC-2998 colon = test system: HCC-2998 colon
MDA-MB-231 breast = test system: MDA-MB-231 breast
BT-549 breast = test system: BT-549 breast

Row | SMILES | TGI (K-562 leukemia) | TGI (786-0 renal) | TGI (HOP-92 NSCLC) | TGI (OVCAR-3 ovarian) | TGI (CCRF-CEM leukemia) | TGI (NCI-H226 lung) | TGI (HCC-2998 colon) | GI50 (K-562 leukemia) | GI50 (HOP-92 NSCLC) | GI50 (CCRF-CEM leukemia) | TGI (MDA-MB-231 breast) | TGI (BT-549 breast) | GI50 (786-0 renal) | GI50 (HCC-2998 colon) | GI50 (NCI-H226 lung) | GI50 (OVCAR-3 ovarian)
1 | CCn1c2ccccc2c(=O)c2c(OC)ccc(OC)c21 | > 100 µM | > 100 µM | 98.7 µM | > 100 µM | > 100 µM | > 100 µM |  |  |  |  |  |  |  |  |  | 
2 | O=C(N/C(=C\c1cccc([N+](=O)[O-])c1)c1nc2ccccc2[nH]1)c1ccccc1 | > 100 µM | > 100 µM | > 100 µM | > 100 µM | > 100 µM | > 100 µM | > 100 µM |  |  |  |  |  |  |  |  | 
3 | C=CC(=O)NC(N)=NC#N | 445 µM | 300 µM | > 63.7 µM and 252 µM | 310 µM | > 66.1 µM and 317 µM | 353 µM | 329 µM | 136 µM | 103 µM | 130 µM |  |  |  |  |  | 
4 | CCN(CC)CC(C)C(=O)/C=C/c1ccc(C)cc1 (configuration not stated) | > 100 µM | 3.65 µM | 4.84 µM | 9.93 µM | 16.1 µM | 31.3 µM | 9.28 µM |  |  |  |  |  |  |  |  | 
5 | O=C(CCc1ccccc1)NS(=O)(=O)c1ccccc1 | > 100 µM | > 100 µM | > 100 µM | > 100 µM | > 100 µM | > 100 µM | > 100 µM |  |  |  |  |  |  |  |  | 
6 | Oc1ccc2ccccc2c1N=Nc1cc(Cl)ccc1Cl | > 50 µM | 17 µM | > 50 µM | > 50 µM | > 50 µM | > 50 µM |  |  |  |  | 27.9 µM | > 50 µM |  |  |  | 
7 | c1ccncc1 | > 100 µM | > 100 µM | > 100 µM | > 100 µM | > 100 µM | > 100 µM | > 100 µM |  |  |  |  |  |  |  |  | 
8 | O=[N+]([O-])c1ccc(C(Cl)C(Cl)c2ccc(C(Cl)C(Cl)c3ccc([N+](=O)[O-])cc3[N+](=O)[O-])cc2)c([N+](=O)[O-])c1 (configuration not stated) | 0.438 µM | 5.62 µM and 1.09 µM | 3.28 µM |  | 1.02 µM |  | 6.87 µM and 1.59 µM |  |  |  |  |  | 0.321 µM | 0.473 µM | 0.23 µM | 
9 | N#CCC(=O)N/N=C1/C(=O)N(c2cc(Cl)ccc2Cl)C(=O)C(=O)C1c1nc2ccccc2s1 (configuration not stated) | > 100 µM | > 100 µM | 83.1 µM | > 100 µM | > 100 µM | > 100 µM | > 100 µM |  |  |  |  |  |  |  |  | 
10 | NC1CCCCC1N.O=C1C=C/C(=C(/c2ccc(O)c(Br)c2)c2ccccc2S(=O)(=O)[O-])C=C1Br.O=C1C=C/C(=C(/c2ccc(O)c(Br)c2)c2ccccc2S(=O)(=O)[O-])C=C1Br.[Pt+4] | > 100 µM | > 100 µM | > 100 µM | > 100 µM |  |  | > 100 µM | 8.79 µM | > 100 µM |  |  |  | 2.42 µM | 4.66 µM |  | 13.8 µM
